Tests used:
Settings in all cases: 48 h
NOMO1 [1] = experiment: AUC of viability dose-response curve (% viability x log10 dose units); higher = less sensitive
Summary of the method: (§1)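 Viability of medium-adapted leukemia cells was measured by CellTiter-Glo One luminescence after 48 h at 37°C with library compounds in DMSO. Doses were 11 threefold steps from 47 μM to 0.79 nM, in 1536-well plates at 500 or 1000 cells/well. Signals were normalised per plate to DMSO and cell-free wells and fitted with a four-parameter log-logistic model on log10 dose. Area under the curve was integrated by trapezoidal rule, with curves exceeding full viability scaled and failed quality-control curves removed.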

P12-Ichikawa [2] = experiment: as above
Summary of the method: as §1

SEM cells [3] = experiment: as above
Summary of the method: as §1

NOMO1 [4] = experiment: cell viability relative to DMSO control; higher = less cytotoxic
Summary of the method: (§2)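 Library compounds in DMSO were pin-dosed into 1536-well plates (5 μl) holding NOMO1 or SEM (500 cells/well) or P12-Ichikawa (1000 cells/well) leukemia cells, across an 11-point threefold series of 47 μM to 0.79 nM. Each cell line had been adapted for at least four passages in each medium. CellTiter-Glo One luminescence was read after 48 h at 37°C. Viability is the per-plate percentage relative to DMSO wells, with cell-free wells as background.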

P12-Ichikawa [5] = experiment: as above
Summary of the method: as §2

SEM cells [6] = experiment: as above
Summary of the method: as §2

CC(C)c1cccc(C(C)C)c1O
AUC of viability dose-response curve
Settings	NOMO1 [1]	P12-Ichikawa [2]	SEM cells [3]
HPLM + 10% dialyzed FBS	463	453	453
RPMI 5 mM glucose + 10% FBS	453	463	459
RPMI 5 mM glucose + 10% dialyzed FBS	455	447	469

F\C1=C\NC(=O)NC1=O
AUC of viability dose-response curve
Settings	NOMO1 [1]	P12-Ichikawa [2]	SEM cells [3]
HPLM + 10% dialyzed FBS	414	405	407
RPMI 5 mM glucose + 10% FBS	437	435	410
RPMI 5 mM glucose + 10% dialyzed FBS	422	413	412

COc1cc2cc(c1Cl)N(C)C(=O)C[C@H](OC(=O)C(C)C)[C@]1(C)O[C@@H]1[C@H](C)[C@@H]1C[C@@](O)(NC(=O)O1)[C@H](OC)/C=C/C=C(\C)C2
cell viability [%]
Settings	NOMO1 [4]	P12-Ichikawa [5]	SEM cells [6]
HPLM + 10% dialyzed FBS, 0.000781 µM	55.5	8.03	27.9
HPLM + 10% dialyzed FBS, 0.00234 µM	53.1	10.4	26
HPLM + 10% dialyzed FBS, 0.00702 µM	53.3	10	28.5
HPLM + 10% dialyzed FBS, 0.0211 µM	44.3	9.14	22.6
HPLM + 10% dialyzed FBS, 0.0632 µM	49	10.7	15.2
HPLM + 10% dialyzed FBS, 0.19 µM	41.8	8.31	9.09
HPLM + 10% dialyzed FBS, 0.569 µM	42.1	8.37	7.19
HPLM + 10% dialyzed FBS, 1.71 µM	41.8	6.69	6.56
HPLM + 10% dialyzed FBS, 5.12 µM	34.9	6.57	5.59
HPLM + 10% dialyzed FBS, 15.4 µM	35.7	5.07	4.17
HPLM + 10% dialyzed FBS, 46.1 µM	13	2.08	2.54
RPMI 5 mM glucose + 10% FBS, 0.000781 µM	32.8	9.26	21.3
RPMI 5 mM glucose + 10% FBS, 0.00234 µM	29.5	12.1	24.2
RPMI 5 mM glucose + 10% FBS, 0.00702 µM	33.7	11.2	21.4
RPMI 5 mM glucose + 10% FBS, 0.0211 µM	30.8	11.8	12.7
RPMI 5 mM glucose + 10% FBS, 0.0632 µM	27.3	11	9.24
RPMI 5 mM glucose + 10% FBS, 0.19 µM	23.5	9.9	8.39
RPMI 5 mM glucose + 10% FBS, 0.569 µM	24	8.75	7.82
RPMI 5 mM glucose + 10% FBS, 1.71 µM	19	8.41	6.35
RPMI 5 mM glucose + 10% FBS, 5.12 µM	22.4	6.23	4.76
RPMI 5 mM glucose + 10% FBS, 15.4 µM	26.4	5.36	4.03
RPMI 5 mM glucose + 10% FBS, 46.1 µM	9.73	2	2.1
RPMI 5 mM glucose + 10% dialyzed FBS, 0.000781 µM	37.2	17.5	24.3
RPMI 5 mM glucose + 10% dialyzed FBS, 0.00234 µM	40.4	18.1	24
RPMI 5 mM glucose + 10% dialyzed FBS, 0.00702 µM	36.2	16.5	20.2
RPMI 5 mM glucose + 10% dialyzed FBS, 0.0211 µM	32.1	14.6	14.5
RPMI 5 mM glucose + 10% dialyzed FBS, 0.0632 µM	22.9	14.3	8.42
RPMI 5 mM glucose + 10% dialyzed FBS, 0.19 µM	22.2	12.9	5.55
RPMI 5 mM glucose + 10% dialyzed FBS, 0.569 µM	25.4	12.2	5.76
RPMI 5 mM glucose + 10% dialyzed FBS, 1.71 µM	22.4	10.2	5.03
RPMI 5 mM glucose + 10% dialyzed FBS, 5.12 µM	25.9	8.98	4.42
RPMI 5 mM glucose + 10% dialyzed FBS, 15.4 µM	27.8	8.07	3.49
RPMI 5 mM glucose + 10% dialyzed FBS, 46.1 µM	11.8	2.84	1.84

AUC of viability dose-response curve
Settings	HPLM + 10% dialyzed FBS	RPMI 5 mM glucose + 10% FBS	RPMI 5 mM glucose + 10% dialyzed FBS
P12-Ichikawa [2]	37.9	42.6	59.7
SEM cells [3]	66.3	51.6	49.3

COc1nc(N)nc2c1ncn2[C@@H]1O[C@H](CO)[C@@H](O)[C@@H]1O
AUC of viability dose-response curve
Settings	NOMO1 [1]	P12-Ichikawa [2]	SEM cells [3]
HPLM + 10% dialyzed FBS	458	455	472
RPMI 5 mM glucose + 10% FBS	444	462	449
RPMI 5 mM glucose + 10% dialyzed FBS	448	456	463

Cc1oncc1C(=O)Nc1ccc(C(F)(F)F)cc1
AUC of viability dose-response curve
Settings	NOMO1 [1]	P12-Ichikawa [2]	SEM cells [3]
HPLM + 10% dialyzed FBS	458	461	471
RPMI 5 mM glucose + 10% FBS	461	454	468
RPMI 5 mM glucose + 10% dialyzed FBS	422	459	465

COC1=CC(=CC(=C1)C2=CC=C3N=CC\4=C(N(C(=O)\C=C4)C5=CC(=C(C=C5)N6CCNCC6)C(F)(F)F)C3=C2)OC
AUC of viability dose-response curve
Settings	NOMO1 [1]	P12-Ichikawa [2]	SEM cells [3]
HPLM + 10% dialyzed FBS	387	440	406
RPMI 5 mM glucose + 10% FBS	456	407	414
RPMI 5 mM glucose + 10% dialyzed FBS	436	412	413

O=C(CCCN1CCC(O)(c2ccc(Cl)cc2)CC1)c1ccc(F)cc1
cell viability [%]
Settings	NOMO1 [4]	P12-Ichikawa [5]	SEM cells [6]
HPLM + 10% dialyzed FBS, 0.000781 µM	115	105	86.5
HPLM + 10% dialyzed FBS, 0.00234 µM	119	107	93.9
HPLM + 10% dialyzed FBS, 0.00702 µM	108	109	75.6
HPLM + 10% dialyzed FBS, 0.0211 µM	111	116	106
HPLM + 10% dialyzed FBS, 0.0632 µM	114	119	113
HPLM + 10% dialyzed FBS, 0.19 µM	133	123	94.8
HPLM + 10% dialyzed FBS, 0.569 µM	135	111	25.8
HPLM + 10% dialyzed FBS, 1.71 µM	129	111	43.8
HPLM + 10% dialyzed FBS, 5.12 µM	126	119	90.2
HPLM + 10% dialyzed FBS, 15.4 µM	110	127	102
HPLM + 10% dialyzed FBS, 46.1 µM	91.7	107	98.3
RPMI 5 mM glucose + 10% FBS, 0.000781 µM	95.3	106	100
RPMI 5 mM glucose + 10% FBS, 0.00234 µM	106	112	109
RPMI 5 mM glucose + 10% FBS, 0.00702 µM	101	111	82.6
RPMI 5 mM glucose + 10% FBS, 0.0211 µM	109	124	101
RPMI 5 mM glucose + 10% FBS, 0.0632 µM	128	124	113
RPMI 5 mM glucose + 10% FBS, 0.19 µM	117	132	117
RPMI 5 mM glucose + 10% FBS, 0.569 µM	110	116	20.9
RPMI 5 mM glucose + 10% FBS, 1.71 µM	119	126	47.2
RPMI 5 mM glucose + 10% FBS, 5.12 µM	102	124	117
RPMI 5 mM glucose + 10% FBS, 15.4 µM	110	131	110
RPMI 5 mM glucose + 10% FBS, 46.1 µM	82.1	95.9	89.6
RPMI 5 mM glucose + 10% dialyzed FBS, 0.000781 µM	115	108	101
RPMI 5 mM glucose + 10% dialyzed FBS, 0.00234 µM	121	114	106
RPMI 5 mM glucose + 10% dialyzed FBS, 0.00702 µM	114	117	95.5
RPMI 5 mM glucose + 10% dialyzed FBS, 0.0211 µM	110	111	110
RPMI 5 mM glucose + 10% dialyzed FBS, 0.0632 µM	125	116	123
RPMI 5 mM glucose + 10% dialyzed FBS, 0.19 µM	115	131	120
RPMI 5 mM glucose + 10% dialyzed FBS, 0.569 µM	120	115	30.6
RPMI 5 mM glucose + 10% dialyzed FBS, 1.71 µM	116	115	43
RPMI 5 mM glucose + 10% dialyzed FBS, 5.12 µM	122	119	122
RPMI 5 mM glucose + 10% dialyzed FBS, 15.4 µM	117	112	122
RPMI 5 mM glucose + 10% dialyzed FBS, 46.1 µM	82.5	99.8	101

AUC of viability dose-response curve
Settings	HPLM + 10% dialyzed FBS	RPMI 5 mM glucose + 10% FBS	RPMI 5 mM glucose + 10% dialyzed FBS
NOMO1 [1]	467	471	470
P12-Ichikawa [2]	459	466	470

Reference: the supplement of paper PMC11451515
